US11325938B2, “CD73 inhibitors” (ORIC Pharmaceuticals, Inc., priority 2018, dated 2022)

Target: CD73 (Homo sapiens (Human), UniProt P21589)
Experiment: Biochemical assay: inhibition of CD73 activity (AMP hydrolysis, Malachite Green readout)
Conditions: CD73 0.3208 nM, AMP 15 μM, 25 mM Tris-HCl pH 7.4, RT, absorbance 620 nm
Experimental: Example A1: Biochemical Assay
Assay Reaction Conditions
• Assay Volume: 70 μl • Reaction Volume: 50 μl • CD73: 0.3208 nM • AMP: 15 μM • Assay Buffer: 25 mM Tris-HCL, pH 7.4, 0.01% Brij-35, 0.01% BSA, 5 mM MgCl2 Assay Procedure:
Made dose titration of testing compounds in assay buffer, 10 points ½ log titrations in duplicates starting at 100 μM.
Added 25 μl of CD73 to each well for a final concentration of 320 pM.
Incubated at RT for 15 min.
Added 25 μl of AMP to each well for a final concentration of 15 μM.
Incubated at RT for 10 min.
Added 10 μl of Malachite Green Reagent A, incubate at RT for 10 min.
Added 10 of Malachite Green Reagent B, incubate at RT for 45 min.
Read the Absorbance on Envision plate reader using excitation filter: Cy5 […].
The ability of the compounds disclosed herein to inhibit CD73 activity was quantified and the respective IC50 values were determined. Table 2 provides the biochemical IC50 values of compounds disclosed herein.

Sequence of CD73 (P21589 27-574): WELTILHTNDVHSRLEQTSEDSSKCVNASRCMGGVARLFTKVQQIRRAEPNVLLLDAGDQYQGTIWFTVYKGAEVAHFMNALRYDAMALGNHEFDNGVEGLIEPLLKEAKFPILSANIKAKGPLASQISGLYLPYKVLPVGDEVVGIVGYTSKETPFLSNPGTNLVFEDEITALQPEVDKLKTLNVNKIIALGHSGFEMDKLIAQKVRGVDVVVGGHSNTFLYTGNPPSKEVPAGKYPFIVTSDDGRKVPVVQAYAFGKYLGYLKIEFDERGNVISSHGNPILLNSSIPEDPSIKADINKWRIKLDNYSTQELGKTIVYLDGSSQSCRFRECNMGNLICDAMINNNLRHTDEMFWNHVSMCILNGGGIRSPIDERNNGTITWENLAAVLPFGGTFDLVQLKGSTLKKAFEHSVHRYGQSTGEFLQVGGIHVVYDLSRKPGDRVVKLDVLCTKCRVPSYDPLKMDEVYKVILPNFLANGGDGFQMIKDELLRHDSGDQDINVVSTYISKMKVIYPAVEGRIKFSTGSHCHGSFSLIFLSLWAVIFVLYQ

Row | Structure (SMILES) | IC50
1 | C[C@H](Nc1nc(Cl)nc2c1cnn2[C@@H]1O[C@H](COC(C)(CO)P(=O)(O)O)[C@@H](O)[C@H]1O)c1ccc(F)cc1 (mixture of isomers) [Example 183, rac-(2-(((2R,3S,4R,5R)-5-(6-chloro-4-(((S)-1-(4-fluorophenyl)ethyl)amino)-1H-pyrazolo[3,4-d]pyrimidin-1-yl)-3,4-dihydroxytetrahydrofuran-2-yl)methoxy)-1-hydroxypropane-2-yl)phosphonic acid] | ≤ 100 nM
2 | C[C@@H]1CCC[C@@H]1Nc1nc(Cl)nc2c1cnn2[C@@H]1O[C@H](COC(CO)(Cc2nn[nH]n2)P(=O)(O)O)[C@@H](O)[C@H]1O (mixture of isomers) [Example 209, rac-(2-(((2R,3S,4R,5R)-5-(6-chloro-4-(((1S,2R)-2-methylcyclopentyl)amino)-1H-pyrazolo[3,4-d]pyrimidin-1-yl)-3,4-dihydroxytetrahydrofuran-2-yl)methoxy)-1-hydroxy-3-(2H-tetrazol-5-yl)propan-2-yl)phosphonic acid] | ≤ 100 nM
3 | O=P(O)(O)C(CO)(COC1CCC1)OC[C@H]1O[C@@H](n2ncc3c(NC4CCCC4)nc(Cl)nc32)[C@H](O)[C@@H]1O (mixture of isomers) [Example 163, rac-(2-(((2R,3S,4R,5R)-5-(6-chloro-4-(cyclopentylamino)-1H-pyrazolo[3,4-d]pyrimidin-1-yl)-3,4-dihydroxytetrahydrofuran-2-yl)methoxy)-1-cyclobutoxy-3-hydroxypropan-2-yl)phosphonic acid] | ≤ 100 nM
4 | O=P(O)(O)C(CO)(CO)OC[C@H]1O[C@@H](n2ncc3c(N[C@@H]4CC[C@H]5CCC[C@H]54)nc(Cl)nc32)[C@H](O)[C@@H]1O (racemic) [Example 164, rac-(2-(((2R,3S,4R,5R)-5-(6-chloro-4-(((1R,3aR,6aR)-octahydropentalen-1-yl)amino)-1H-pyrazolo[3,4-d]pyrimidin-1-yl)-3,4-dihydroxytetrahydrofuran-2-yl)methoxy)-1,3-dihydroxypropan-2-yl)phosphonic acid] | ≤ 100 nM
5 | C[C@@H](O)COc1nc(NC2CCCC2)c2cnn([C@@H]3O[C@H](CO[C@@](C)(CO)P(=O)(O)O)[C@@H](O)[C@H]3O)c2n1 (racemic) [Example 165, rac-((R)-2-(((2R,3S,4R,5R)-5-(4-(cyclopentylamino)-6-((R)-2-hydroxypropoxy)-1H-pyrazolo[3,4-d]pyrimidin-1-yl)-3,4-dihydroxytetrahydrofuran-2-yl)methoxy)-1-hydroxypropan-2-yl)phosphonic acid] | ≤ 100 nM
6 | O=P(O)(O)C(COCCO)OC[C@H]1O[C@@H](n2ncc3c(NC4CCCC4)nc(Cl)nc32)[C@H](O)[C@@H]1O (mixture of isomers) [Example 166, rac-(1-(((2R,3S,4R,5R)-5-(6-chloro-4-(cyclopentyalmino)-1H-pyrazolo[3,4-d]pyrimidin-1-yl)-3,4-dihydroxytetrahydrofuran-2-yl)methoxy)-2-(2-hydroxyethoxy)ethyl)phosphonic acid] | ≤ 100 nM
7 | O=P(O)(O)C(CO)(CC1COC1)OC[C@H]1O[C@@H](n2ncc3c(NC4CCCC4)nc(Cl)nc32)[C@H](O)[C@@H]1O (mixture of isomers) [Example 167, rac-(2-(((2R,3S,4R,5R)-5-(6-chloro-4-(cyclopentylamino)-1H-pyrazolo[3,4-d]pyrimidin-1-yl)-3,4-dihydroxytetrahydrofuran-2-yl)methoxy)-1-hydroxy-3-(oxetan-3-yl)propan-2-yl)phosphonic acid] | ≤ 100 nM
8 | O=P(O)(O)C(CO)(Cc1ncccn1)OC[C@H]1O[C@@H](n2ncc3c(NC4CCCC4)nc(Cl)nc32)[C@H](O)[C@@H]1O (mixture of isomers) [Example 168, rac-(2-(((2R,3S,4R,5R)-5-(6-chloro-4-(cyclopentylamino)-1H-pyrazolo[3,4-d]pyrimidin-1-yl)-3,4-dihydroxytetrahydrofuran-2-yl)methoxy)-1-hydroxy-3-(pyrimidin-2-yl)propan-2-yl)phosphonic acid] | ≤ 100 nM
9 | O=P(O)(O)[C@](CO)(COCC1CC1)OC[C@H]1O[C@@H](n2ncc3c(NC4CCCC4)nc(Cl)nc32)[C@H](O)[C@@H]1O (racemic) [Example 170, rac-((R)-2-(((2R,3S,4R,5R)-5-(6-chloro-4-(cyclopentylamino)-1H-pyrazolo[3,4-d]pyrimidin-1-yl)-3,4-dihydroxytetrahydrofuran-2-yl)methoxy)-1-(cyclopropylmethoxy)-3-hydroxypropan-2-yl)phosphonic acid] | ≤ 100 nM
10 | O=P(O)(O)[C@@](CO)(COCC1CC1)OC[C@H]1O[C@@H](n2ncc3c(NC4CCCC4)nc(Cl)nc32)[C@H](O)[C@@H]1O (racemic) [Example 171, rac-((R)-2-(((2S,3R,4S,5S)-5-(6-chloro-4-(cyclopentylamino)-1H-pyrazolo[3,4-d]pyrimidin-1-yl)-3,4-dihydroxytetrahydrofuran-2-yl)methoxy)-1-(cyclopropylmethoxy)-3-hydroxypropan-2-yl)phosphonic acid] | ≤ 100 nM
11 | C[C@](CO)(OC[C@H]1O[C@@H](n2ncc3c(N[C@@H]4CC[C@H]5CCC[C@H]54)nc(Cl)nc32)[C@H](O)[C@@H]1O)P(=O)(O)O (racemic) [Example 173, rac-((R)-2-(((2S,3R,4S,5S)-5-(6-chloro-4-(((1S,3aS,6aS)-octahydropentalen-1-yl)amino)-1H-pyrazolo[3,4-d]pyrimidin-1-yl)-3,4-dihydroxytetrahydrofuran-2-yl)methoxy)-1-hydroxypropan-2-yl)phosphonic acid] | ≤ 100 nM
12 | CC(C)(O)COc1nc(NC2CCCC2)c2cnn([C@@H]3O[C@H](COC(CO)(CO)P(=O)(O)O)[C@@H](O)[C@H]3O)c2n1 (racemic) [Example 175, rac-(2-(((2R,3S,4R,5R)-5-(4-(cyclopentylamino)-6-(2-hydroxy-2-methylpropoxy)-1H-pyrazolo[3,4-d]pyrimidin-1-yl)-3,4-dihydroxytetrahydrofuran-2-yl)methoxy)-1,3-dihydroxypropan-2-yl)phosphonic acid] | ≤ 100 nM
13 | O=P(O)(O)C(CO)(CO)OC[C@H]1O[C@@H](n2ncc3c(N[C@@H]4CCc5cc(F)ccc54)nc(Cl)nc32)[C@H](O)[C@@H]1O (racemic) [Example 176, rac-(2-(((2R,3S,4R,5R)-5-(6-chloro-4-(((R)-5-fluoro-2,3-dihydro-1H-inden-1-yl)amino)-1H-pyrazolo[3,4-d]pyrimidin-1-yl)-3,4-dihydroxytetrahydrofuran-2-yl)methoxy)-1,3-dihydroxypropan-2-yl)phosphonic acid] | ≤ 100 nM

Continued, values first:

Row | IC50 | Structure (SMILES)
14 | 100 to 1000 nM | COCC(OC[C@@H]1O[C@H](n2ncc3c(NC4CCCC4)nc(Cl)nc32)[C@@H](O)[C@H]1O)(C(=O)O)P(=O)(O)O (mixture of isomers) [Example 220, rac-(R)-2-(((2S,3R,4S,5S)-5-(6-chloro-4-(cyclopentylamino)-1H-pyrazolo[3,4-d]pyrimidin-1-yl)-3,4-dihydroxytetrahydrofuran-2-yl)methoxy)-3-methoxy-2-phosphonopropanoic acid]
15 | ≤ 100 nM | COCC(OC[C@H]1O[C@@H](n2ncc3c(NC4CCCC4)nc(Cl)nc32)[C@H](O)[C@@H]1O)(C(=O)O)P(=O)(O)O (mixture of isomers) [Example 221, rac-(R)-2-(((2R,3S,4R,5R)-5-(6-chloro-4-(cyclopentylamino)-1H-pyrazolo[3,4-d]pyrimidin-1-yl)-3,4-dihydroxytetrahydrofuran-2-yl)methoxy)-3-methoxy-2-phosphonopropanoic acid]
16 | ≤ 100 nM | CCOCC(CO)(OC[C@H]1O[C@@H](n2ncc3c(NC4CCCC4)nc(Cl)nc32)[C@H](O)[C@@H]1O)P(=O)(O)O (mixture of isomers) [Example 169, rac-(2-(((2R,3S,4R,5R)-5-(6-chloro-4-(cyclopentylamino)-1H-pyrazolo[3,4-d]pyrimidin-1-yl)-3,4-dihydroxytetrahydrofuran-2-yl)methoxy)-1-ethoxy-3-hydroxypropan-2-yl)phosphonic acid]
17 | ≤ 100 nM | O=P(O)(O)C(CO)(COCCO)OC[C@H]1O[C@@H](n2ncc3c(NC4CCCC4)nc(Cl)nc32)[C@H](O)[C@@H]1O (mixture of isomers) [Example 172, rac-(2-(((2R,3S,4R,5R)-5-(6-chloro-4-(cyclopentylamino)-1H-pyrazolo[3,4-d]pyrimidin-1-yl)-3,4-dihydroxytetrahydrofuran-2-yl)methoxy)-1-hydroxy-3-(2-hydroxyethoxy)propan-2-yl)phosphonic acid]
18 | ≤ 100 nM | COCC(COC)(OC[C@H]1O[C@@H](n2ncc3c(NC4CCC4)nc(Cl)nc32)[C@H](O)[C@@H]1O)P(=O)(O)O (racemic) [Example 174, rac-(2-(((2R,3S,4R,5R)-5-(6-chloro-4-(cyclobutylamino)-1H-pyrazolo[3,4-d]pyrimidin-1-yl)-3,4-dihydroxytetrahydrofuran-2-yl)methoxy)-1,3-dimethoxypropan-2-yl)phosphonic acid]
19 | ≤ 100 nM | COCCOCC(COCCO)(OC[C@H]1O[C@@H](n2ncc3c(NC4CCCC4)nc(Cl)nc32)[C@H](O)[C@@H]1O)P(=O)(O)O (mixture of isomers) [Example 177, rac-(2-(((2R,3S,4R,5R)-5-(6-chloro-4-(cyclopentylamino)-1H-pyrazolo[3,4-d]pyrimidin-1-yl)-3,4-dihydroxytetrahydrofuran-2-yl)methoxy)-1-(2-hydroxyethoxy)-3-(2-methoxyethoxy)propan-2-yl)phosphonic acid]
